# Results published in US20250313549A1, “HERBICIDAL DERIVATIVES” (SYNGENTA CROP PROTECTION AG, priority 2021, published 2025).
# How the values were obtained:
# Assay type in all cases: in vivo
# [1] = test system: Amaranthus palmeri (AMAPA); test: Pre-emergence test, herbicidal damage; details: 1000 g/ha, evaluated after 13 days
# [2] = test system: Ipomoea hederacea (IPOHE); test: Pre-emergence test, herbicidal damage; details: 1000 g/ha, evaluated after 13 days
# [3] = test system: Amaranthus retoflexus (AMARE); test: Pre-emergence test, herbicidal damage; details: 1000 g/ha, evaluated after 13 days
# [4] = test system: Echinochloa crus-galli (ECHCG); test: Pre-emergence test, herbicidal damage; details: 1000 g/ha, evaluated after 13 days
# Zea mays (ZEAMX) [5] = test: Pre-emergence test, herbicidal damage; details: 1000 g/ha, evaluated after 13 days
# Zea mays (ZEAMX) [6] = test: Post-emergence test, herbicidal damage; details: sprayed after 8 days cultivation, 1000 g/ha, evaluated after 13 days
# Protocol: (§1) Seeds of a variety of test species are sown in standard soil in pots (Amaranthus retoflexus (AMARE), Echinochloa crus-galli (ECHCG), Amaranthus palmeri (AMAPA), Setaria faberi (SETFA), Zea mays (ZEAMX), Ipomoea hederacea (IPOHE)). After 8 days cultivation under controlled conditions in a glasshouse (at 24° C./16° C., day/night; 14 hours light; 65% humidity), the plants are sprayed with an aqueous spray solution derived from the formulation of the technical active ingredient in acetone/water (50:50) solution containing 0.5% Tween 20 (polyoxyethylene sorbitan monolaurate, CAS RN 9005-64-5). Compounds are applied at 1000 g/ha unless otherwise stated. The test plants are then grown in a glasshouse under controlled conditions in a glasshouse (at 24° C./16° C., day/night; 14 hours light; 65% humidity) and watered twice daily. After 13 days the test is evaluated for the percentage damage caused to the plant. The biological activities are shown in the following table on a five-point scale (5=81-100%; 4=61-80%; 3=41-60%; 2=21-40%; 1=10-20%; 0=0%; -=not tested).
# Setaria faberi (SETFA) [7] = test: Post-emergence test, herbicidal damage; details: sprayed after 8 days cultivation, 1000 g/ha, evaluated after 13 days
# Protocol: as §1
# [8] = test system: Amaranthus retoflexus (AMARE); test: Post-emergence test, herbicidal damage; details: sprayed after 8 days cultivation, 1000 g/ha, evaluated after 13 days
# Protocol: as §1
# [9] = test system: Ipomoea hederacea (IPOHE); test: Post-emergence test, herbicidal damage; details: sprayed after 8 days cultivation, 1000 g/ha, evaluated after 13 days
# Protocol: as §1
# [10] = test system: Amaranthus palmeri (AMAPA); test: Post-emergence test, herbicidal damage; details: sprayed after 8 days cultivation, 1000 g/ha, evaluated after 13 days
# Protocol: as §1
# [11] = test system: Echinochloa crus-galli (ECHCG); test: Post-emergence test, herbicidal damage; details: sprayed after 8 days cultivation, 1000 g/ha, evaluated after 13 days
# Protocol: as §1
# Setaria faberi (SETFA) [12] = test: Pre-emergence test, herbicidal damage; details: 1000 g/ha, evaluated after 13 days
SMILES,"percentage damage caused to the plant, AMAPA [1]","percentage damage caused to the plant, IPOHE [2]","percentage damage caused to the plant, AMARE [3]","percentage damage caused to the plant, ECHCG [4]","percentage damage caused to the plant, ZEAMX (Zea mays (ZEAMX) [5])","percentage damage caused to the plant, ZEAMX (Zea mays (ZEAMX) [6])","percentage damage caused to the plant, SETFA (Setaria faberi (SETFA) [7])","percentage damage caused to the plant, AMARE [8]","percentage damage caused to the plant, IPOHE [9]","percentage damage caused to the plant, AMAPA [10]","percentage damage caused to the plant, ECHCG [11]","percentage damage caused to the plant, SETFA (Setaria faberi (SETFA) [12])"
"CCOC(=O)c1nn(-c2ncc(Cl)cn2)c2cccc(Br)c2c1=O [Compound 34, ethyl 5-bromo-1-(5-chloropyrimidin-2-yl)-4-oxo-cinnoline-3-carboxylate]",1 (1=10-20%),0 (0=0%),0 (0=0%),0 (0=0%),0 (0=0%),1 (1=10-20%),2 (2=21-40%),3 (3=41-60%),3 (3=41-60%),1 (1=10-20%),0 (0=0%),1 (1=10-20%)
"CCOC(=O)c1nn(-c2ccnc(Br)c2)c2cccc(Br)c2c1=O [Compound 10, ethyl 5-bromo-1-(2-bromo-4-pyridyl)-4-oxo-cinnoline-3-carboxylate]",0 (0=0%),0 (0=0%),1 (1=10-20%),–,0 (0=0%),0 (0=0%),0 (0=0%),3 (3=41-60%),0 (0=0%),3 (3=41-60%),1 (1=10-20%),0 (0=0%)
"CCOC(=O)c1nn(-c2cc(OC)ncn2)c2cccc(Br)c2c1=O [Compound 32, ethyl 5-bromo-1-(6-methoxypyrimidin-4-yl)-4-oxo-cinnoline-3-carboxylate]",0 (0=0%),0 (0=0%),0 (0=0%),1 (1=10-20%),0 (0=0%),0 (0=0%),0 (0=0%),1 (1=10-20%),1 (1=10-20%),1 (1=10-20%),0 (0=0%),1 (1=10-20%)
"N#Cc1cccc2c1c(=O)c(C(=O)O)nn2-c1cncnc1 [Compound 1, 5-cyano-4-oxo-1-pyrimidin-5-yl-cinnoline-3-carboxylic acid]",0 (0=0%),0 (0=0%),0 (0=0%),2 (2=21-40%),0 (0=0%),1 (1=10-20%),1 (1=10-20%),2 (2=21-40%),1 (1=10-20%),1 (1=10-20%),2 (2=21-40%),0 (0=0%)
"CCOC(=O)c1nn(-c2ccc(F)nc2)c2cccc(Br)c2c1=O [Compound 23, ethyl 5-bromo-1-(6-fluoro-3-pyridyl)-4-oxo-cinnoline-3-carboxylate]",0 (0=0%),1 (1=10-20%),0 (0=0%),5 (5=81-100%),0 (0=0%),1 (1=10-20%),4 (4=61-80%),0 (0=0%),0 (0=0%),0 (0=0%),4 (4=61-80%),4 (4=61-80%)
"CCOC(=O)c1nn(-c2ccc(OC(F)F)nc2)c2cccc(Br)c2c1=O [Compound 36, ethyl 5-bromo-1-[6-(difluoromethoxy)-3-pyridyl]-4-oxo-cinnoline-3-carboxylate]",1 (1=10-20%),0 (0=0%),0 (0=0%),0 (0=0%),1 (1=10-20%),0 (0=0%),1 (1=10-20%),2 (2=21-40%),1 (1=10-20%),0 (0=0%),0 (0=0%),1 (1=10-20%)
"CCOC(=O)c1nn(-c2ccnc(OC(F)F)c2)c2cccc(C(C)=O)c2c1=O [Compound 40, ethyl 5-acetyl-1-[2-(difluoromethoxy)-4-pyridyl]-4-oxo-cinnoline-3-carboxylate]",0 (0=0%),0 (0=0%),0 (0=0%),3 (3=41-60%),0 (0=0%),–,1 (1=10-20%),1 (1=10-20%),1 (1=10-20%),0 (0=0%),4 (4=61-80%),–
